“And” between values parts separate entries of the source, which are not always exact repeats. Equal values may be shown once.
What was measured:
[1] = Half life in rat, iv; type: ADME; conditions: in vivo
HeLa = test: Antitumor activity against human HeLa cells xenografted in mouse model assessed as reduction in tumor growth at 100 mg/kg bid relative to control; type: functional; design: scale not given: the % may be the effect or the level left
A549 [2] = test: Antiproliferative activity against human A549 cells assessed as inhibition of cell proliferation by MTT assay; type: functional, cell-based
HCT-116 [3] = test: Antiproliferative activity against human HCT-116 cells assessed as inhibition of cell proliferation by MTT assay; type: functional, cell-based
[4] = Antiproliferative activity against mouse Lewis lung carcinoma cell line cells assessed as inhibition of cell proliferation by MTT assay; type: functional, cell-based
Histone deacetylase = test: Inhibition of HDAC (unknown origin); type: protein assay, Homo sapiens
A549 [5] = test: Antitumor activity against human A549 cells xenografted in mouse model assessed as reduction in tumor growth at 100 mg/kg bid relative to control; type: functional; design: scale not given: the % may be the effect or the level left
physchem = conditions: octanol/water
Description: Lipophilicity, log D of the compound

[6] = Inhibition of recombinant MAPK p38 (unknown origin) assessed as inhibition of MEF2A phosphorylation incubated for 5 mins by SDS-PAGE method; design: species or system Homo sapiens
Rattus norvegicus [7] = test: Antihypertensive activity in spontaneously hypertensive rat model assessed as change in blood pressure at 1 mg/kg, po measured after 3 hrs; type: functional
Rattus norvegicus [8] = test: Antihypertensive activity in spontaneously hypertensive rat model assessed as change in heart rate at 1 umol/kg, po measured after 3 hrs; type: functional
Rattus norvegicus [9] = test: Antihypertensive activity in spontaneously hypertensive rat model assessed as change in blood pressure at 1 mg/kg, po measured after 6 hrs; type: functional
Rattus norvegicus [10] = test: Antihypertensive activity in spontaneously hypertensive rat model assessed as change in heart rate at 10 mg/Kg, po measured after 6 hrs; type: functional
Rattus norvegicus [11] = test: Antihypertensive activity in spontaneously hypertensive rat model assessed as change in blood pressure at 1 mg/kg, po measured after 10 hrs; type: functional
Rattus norvegicus [12] = test: Antihypertensive activity in spontaneously hypertensive rat model assessed as change in heart rate at 1 mmol/Kg, po measured after 10 hrs; type: functional
Rattus norvegicus [13] = species on record: Rattus norvegicus; test: Antihypertensive activity in spontaneously hypertensive rat model assessed as reduction in pulmonary arterial pressure; type: functional
Rattus norvegicus [14] = species on record: Rattus norvegicus; test: Antihypertensive activity in spontaneously hypertensive rat model assessed as reduction in systemic arterial pressure; type: functional
[15] = Inhibition of LPS induced TNF-alpha secretion in human THP-1 cells pretreated with LPS for 1 hr followed by compound addition and measured after 3 hrs by ELISA method; type: functional, cell-based
[16] = Inhibition of MAPK p38 (unknown origin); design: species or system Homo sapiens
HASMC = test: Antiproliferative activity against human HASMC cells assessed as inhibition of cell proliferation measured after 24 hrs by MTT assay; type: functional, cell-based
Rattus norvegicus [17] = test: Antihypertensive activity in spontaneously hypertensive rat model assessed as change in heart rate at 1 mmol/Kg, po measured after 3 hrs; type: functional
Rattus norvegicus [18] = test: Antihypertensive activity in spontaneously hypertensive rat model assessed as change in blood pressure at 3 mg/kg, po measured after 3 hrs; type: functional
Rattus norvegicus [19] = test: Antihypertensive activity in spontaneously hypertensive rat model assessed as change in blood pressure at 3 mg/kg, po measured after 6 hrs; type: functional
Rattus norvegicus [20] = test: Antihypertensive activity in spontaneously hypertensive rat model assessed as change in blood pressure at 3 mg/kg, po measured after 10 hrs; type: functional
Rattus norvegicus [21] = test: Antihypertensive activity in spontaneously hypertensive rat model assessed as change in blood pressure at 10 mg/kg, po measured after 3 hrs; type: functional
Rattus norvegicus [22] = test: Antihypertensive activity in spontaneously hypertensive rat model assessed as change in blood pressure at 10 mg/kg, po measured after 6 hrs; type: functional
Rattus norvegicus [23] = test: Antihypertensive activity in spontaneously hypertensive rat model assessed as change in blood pressure at 10 mg/kg, po measured after 10 hrs; type: functional
[24] = target: 3',5'-cyclic-AMP phosphodiesterase 4D (Homo sapiens, UniProt Q08499); test: Inhibition of human recombinant PDE4D
[25] = Anti-inflammatory activity against human PBMCs assessed as reduction in LPS-induced TNF-alpha release by ELISA analysis; type: functional, cell-based; conditions: PBMC
Mus musculus = species on record: Mus musculus; test: Anti-inflammatory activity in LPS-induced inflammatory mouse model assessed as reduction in neutrophil influx; type: functional
Rattus norvegicus [26] = species on record: Rattus norvegicus; test: Anti-inflammatory activity against ovalbumin induced lung inflammatory rat model assessed as reduction in eosinophil influx; type: functional
[27] = Dissociation constant, pKa of compound; type: physicochemical
[28] = Lipophilicity, log D of compound at pH 7.4; type: physicochemical; conditions: buffer
[29] = target: Aldo-keto reductase family 1 member C3 (Homo sapiens, UniProt P42330); test: Inhibition of AKR1C3 (unknown origin)
[30] = target: Prostaglandin G/H synthase 1 (Homo sapiens, UniProt P23219); test: Inhibition of COX1 (unknown origin)
[31] = target: Prostaglandin G/H synthase 2 (Homo sapiens, UniProt P35354); test: Inhibition of COX2 (unknown origin)
LNCaP = test: Antiproliferative activity against human LNCaP cells assessed as reduction in cell viability; type: functional, cell-based
HCT-116 [32] = test: cells; conditions: Homo sapiens
HT-29 = test: cells; conditions: Homo sapiens
Description: Antiproliferative activity against human HT-29 cells assessed as reduction in cell viability

[33] = Half life in mouse; type: ADME, organism-based; conditions: in vivo
HEK-293T [34] = test: Antiproliferative activity against human HEK293T cells assessed as inhibition of cell proliferation by MTT assay; type: functional, cell-based
HEK-293T [35] = test: Antitumor activity against human HEK293T cells xenografted in mouse model assessed as reduction in tumor growth at 100 mg/kg bid relative to control; type: functional; design: scale not given: the % may be the effect or the level left

Chain of Prostaglandin G/H synthase 1 (P23219 whole entry): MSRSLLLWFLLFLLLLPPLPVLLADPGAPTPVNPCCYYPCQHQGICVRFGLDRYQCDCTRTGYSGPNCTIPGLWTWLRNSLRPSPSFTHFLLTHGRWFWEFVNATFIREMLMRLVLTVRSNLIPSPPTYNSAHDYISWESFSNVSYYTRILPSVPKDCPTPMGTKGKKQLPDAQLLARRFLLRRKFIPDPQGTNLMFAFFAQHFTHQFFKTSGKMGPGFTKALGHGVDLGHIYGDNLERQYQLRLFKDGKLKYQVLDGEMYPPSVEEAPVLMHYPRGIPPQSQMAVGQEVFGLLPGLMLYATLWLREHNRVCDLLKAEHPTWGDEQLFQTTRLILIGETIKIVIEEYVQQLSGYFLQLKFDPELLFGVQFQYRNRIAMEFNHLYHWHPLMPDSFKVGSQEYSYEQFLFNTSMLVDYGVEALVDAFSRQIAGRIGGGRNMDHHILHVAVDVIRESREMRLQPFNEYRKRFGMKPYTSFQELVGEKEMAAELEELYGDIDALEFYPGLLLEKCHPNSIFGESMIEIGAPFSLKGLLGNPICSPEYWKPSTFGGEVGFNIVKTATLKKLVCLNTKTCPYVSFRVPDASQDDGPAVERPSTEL
Chain of 3',5'-cyclic-AMP phosphodiesterase 4D (Q08499 whole entry): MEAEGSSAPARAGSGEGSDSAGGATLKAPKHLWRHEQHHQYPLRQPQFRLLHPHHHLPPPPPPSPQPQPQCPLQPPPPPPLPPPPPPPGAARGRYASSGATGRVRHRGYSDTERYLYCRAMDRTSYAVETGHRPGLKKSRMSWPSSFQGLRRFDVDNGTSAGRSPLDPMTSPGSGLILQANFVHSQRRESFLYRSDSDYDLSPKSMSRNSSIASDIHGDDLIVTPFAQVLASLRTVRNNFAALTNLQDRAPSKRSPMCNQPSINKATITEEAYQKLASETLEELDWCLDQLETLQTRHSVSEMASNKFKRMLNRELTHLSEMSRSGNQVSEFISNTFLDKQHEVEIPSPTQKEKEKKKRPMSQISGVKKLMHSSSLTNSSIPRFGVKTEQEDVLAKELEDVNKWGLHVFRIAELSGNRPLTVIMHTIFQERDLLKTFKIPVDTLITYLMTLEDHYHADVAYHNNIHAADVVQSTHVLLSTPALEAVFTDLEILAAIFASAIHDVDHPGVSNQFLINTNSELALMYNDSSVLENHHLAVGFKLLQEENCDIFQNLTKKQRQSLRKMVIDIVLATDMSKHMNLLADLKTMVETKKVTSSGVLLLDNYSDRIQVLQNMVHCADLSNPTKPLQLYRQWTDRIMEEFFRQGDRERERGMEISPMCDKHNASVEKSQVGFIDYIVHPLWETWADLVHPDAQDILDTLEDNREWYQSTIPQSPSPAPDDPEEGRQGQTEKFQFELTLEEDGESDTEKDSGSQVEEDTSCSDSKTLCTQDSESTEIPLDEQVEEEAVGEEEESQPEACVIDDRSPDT
Chain of Prostaglandin G/H synthase 2 (P35354 whole entry): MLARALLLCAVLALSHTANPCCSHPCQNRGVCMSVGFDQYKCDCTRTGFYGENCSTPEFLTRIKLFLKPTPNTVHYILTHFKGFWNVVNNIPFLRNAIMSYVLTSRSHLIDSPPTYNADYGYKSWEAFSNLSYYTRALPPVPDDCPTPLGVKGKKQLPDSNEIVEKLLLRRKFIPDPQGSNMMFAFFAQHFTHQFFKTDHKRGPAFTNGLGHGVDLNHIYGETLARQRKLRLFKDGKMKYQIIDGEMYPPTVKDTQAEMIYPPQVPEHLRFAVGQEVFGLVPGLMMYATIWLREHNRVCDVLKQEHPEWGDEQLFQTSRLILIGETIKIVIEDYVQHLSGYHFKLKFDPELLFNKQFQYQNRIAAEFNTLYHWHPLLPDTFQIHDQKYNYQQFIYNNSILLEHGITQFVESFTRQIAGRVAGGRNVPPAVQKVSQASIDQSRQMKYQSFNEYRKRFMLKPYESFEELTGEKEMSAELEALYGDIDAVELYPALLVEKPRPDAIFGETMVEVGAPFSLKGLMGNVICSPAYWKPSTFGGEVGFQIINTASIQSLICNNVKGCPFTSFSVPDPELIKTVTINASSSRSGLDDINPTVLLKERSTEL
Chain of Aldo-keto reductase family 1 member C3 (P42330 whole entry): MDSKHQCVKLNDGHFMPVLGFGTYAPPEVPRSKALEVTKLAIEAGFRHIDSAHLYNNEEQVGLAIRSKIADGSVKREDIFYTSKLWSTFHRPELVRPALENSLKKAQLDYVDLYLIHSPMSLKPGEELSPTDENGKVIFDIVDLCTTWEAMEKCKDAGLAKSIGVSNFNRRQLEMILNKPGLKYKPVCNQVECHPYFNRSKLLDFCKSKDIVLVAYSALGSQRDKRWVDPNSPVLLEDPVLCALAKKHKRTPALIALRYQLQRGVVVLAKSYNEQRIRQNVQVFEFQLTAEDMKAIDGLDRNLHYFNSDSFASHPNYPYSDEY

With `O=C(CNc1nonc1/C(=N/O)N[C@H]1Cc2ccc(F)cc21)NCCO` the half-life [1] was 3.7 h and the Activity (HeLa) was 15%.

Compound `Nc1ccccc1NC(=O)c1ccc(C(=O)NCCNc2nonc2/C(=N/O)Nc2ccc(F)c(Br)c2)cc1` has an EC50 (A549 [2]) of 0.17 µM, an EC50 (HCT-116 [3]) of 5.1 µM and an EC50 [4] of 18 µM. For the same compound, the IC50 (Histone deacetylase) was 0.067 µM, the half-life [1] was 3.4 h and the Activity (A549 [5]) was 56% and 54%.

`O=[N+]([O-])c1ccccc1` [NITROBENZENE] gave a logD (physchem) of 1.6.

Work on `Cc1ccc(Cl)cc1Nc1cc(Cl)c2nonc2c1[N+](=O)[O-]` yielded an IC50 [6] of 10 µM.

With `CCn1c(-c2nonc2N)nc2cncc(C(=O)N3CC[C@H](N)C3)c21` the Activity (Rattus norvegicus [7]) was -20 mmHg, the Activity (Rattus norvegicus [8]) was 20 bpm and the Activity (Rattus norvegicus [9]) was -20 mmHg. The Activity (Rattus norvegicus [10]) was -40 bpm, the Activity (Rattus norvegicus [11]) was -5 mmHg and the Activity (Rattus norvegicus [12]) was -25 bpm. It also gave an Activity (Rattus norvegicus [13]) of -13 mmHg and an Activity (Rattus norvegicus [14]) of -40 mmHg.

Work on `Cc1ccc(Cl)cc1Nc1ccc([N+](=O)[O-])c2nonc12` yielded an EC50 [15] of 1.8 µM and an IC50 [16] of 6.3 µM.

For `O=S(=O)(c1cccc2cnccc12)N1CCCNCC1` [FASUDIL], the IC50 (HASMC) was 1.3 µM, the Activity (Rattus norvegicus [10]) was -10 bpm and the Activity (Rattus norvegicus [12]) was -10 bpm. It also gave an Activity (Rattus norvegicus [17]) of -50 bpm, an Activity (Rattus norvegicus [18]) of -30 mmHg and an Activity (Rattus norvegicus [19]) of -20 mmHg. It also gave an Activity (Rattus norvegicus [20]) of 0 mmHg.

Compound `C[C@@H](N)[C@H]1CC[C@H](C(=O)Nc2ccncc2)CC1` [Y-27632] has an Activity (Rattus norvegicus [10]) of 10 bpm, an Activity (Rattus norvegicus [12]) of 0 bpm and an Activity (Rattus norvegicus [21]) of -25 mmHg. It also gave an Activity (Rattus norvegicus [22]) of -10 mmHg, an Activity (Rattus norvegicus [23]) of -5 mmHg and an Activity (Rattus norvegicus [17]) of 75 bpm. The Activity (Rattus norvegicus [13]) was -10 mmHg and the Activity (Rattus norvegicus [14]) was -32 mmHg.

`O=C(O)[C@H]1CC[C@H](c2cc3cccnc3c(-c3cccc(F)c3)n2)CC1` gave an IC50 [24] of 0.041 µM, an EC50 [25] of 0.126 µM and an ED50 (Mus musculus) of 0.032 µmol/kg. It also gave an ED50 (Rattus norvegicus [26]) of 0.0034 µmol/kg.

With `COc1ccc2c(c1)c(Cc1nonc1O)c(C)n2C(=O)c1ccccc1` the pKa [27] was 4.09, the logD [28] was 1.8 and the IC50 [29] was 0.3 µM. The IC50 [30] was greater than 100 µM, the IC50 [31] was greater than 100 µM and the EC50 (LNCaP) was 141 µM. For the same compound, the EC50 (HCT-116 [32]) was 78.9 µM and the EC50 (HT-29) was 135 µM.

With `NS(=O)(=O)N1CCC[C@@H](CNc2nonc2/C(=N/O)Nc2ccc(F)c(Br)c2)C1` the half-life [33] was 3.8 h, the EC50 (HEK-293T [34]) was 0.069 µM and the Activity (HEK-293T [35]) was 25%.
